In patent publication US12624057B2, “Bisphosphonate quinolone conjugates and uses thereof” (BIOVINC, LLC, priority 2016, dated 2026):

Tests used:
[1] = 24 h
Protocol: Next, solutions were left for 24 h/37° C./shaking. After incubation, absorbance was measured once again. To assess for degradation of conjugate, values of absorbance taken at 0 hr and 24 hrs were compared.

[2] = tested on: planktonic S. aureus clinical osteomyelitis strains (MSSA and MRSA); experiment: MIC by microdilution against planktonic clinical S. aureus strains; type: cell-based, Staphylococcus aureus; details: for antimicrobial activity / MIC against planktonic S. aureus (in words): microdilution, 24 h
Protocol: (§1) Subsequently, the plate was incubated for 24 h/37° C. in a shaker to obtain optimal conditions for microbial growth and to prevent bacteria from forming biofilms. After incubation, the absorbance was measured once again. The following control samples were established: negative control sample one: sterile medium without microbes; negative control sample two: sterile medium without microbes implemented with DMSO (dimethyl sulfoxide, Sigma-Aldritch) to final concentration of 1% (v/v); positive control sample one: medium+microbes with no compound tested; positive control sample two: medium+microbes with no compound tested but implemented with DMSO to final concentration of 1% (v/v). […] To assess relative number of cells, the following calculations were performed. […] Next, the relative number of cells subjected to incubation with tested compounds were counted as follows: […].
as §1, with “Evaluation of the MIC of tested compounds against planktonic forms of clinical staphylococcal strains analyzed: To assess the impact of parent antibiotic and conjugates on microbial growth, 100 μl of microbial solutions of density 1×10^5 CFU/ml were placed into wells of 96-well test plates together with appropriate concentrations of tested compounds. […] Subsequently,” for “Subsequently,”, “plates were” for “the plate was”, “hrs/37°” for “h/37°”, “Sigma-Aldrich)” for “Sigma-Aldritch)”
The occurrence of opacification or lack of opacification of media was proof of pathogen growth or lack of growth, respectively. Additionally, bacterial solutions were cultured on the appropriate stable medium. Growth or lack of growth of bacterial colonies together with above-mentioned results from liquid cultures served as confirmation of results obtained spectrophotometrically.

O=C(O)c1cn(C2CC2)c2cc(N3CCN(C(=O)Oc4ccc(CC(P(=O)(O)O)P(=O)(O)O)cc4)CC3)c(F)cc2c1=O [Compound 6, 1-cyclopropyl-7-(4-((4-(2,2-diphosphonoethyl)phenoxy)carbonyl)piperazin-1-yl)-6-fluoro-4-oxo-1,4-dihydroquinoline-3-carboxylic acid]
stability in trypticase soy broth microbiological media [1]: no degradation is observed after 24 hrs | MIC compared with mean bactericidal concentration (MBC) ([2]; AST data): equivalent to their mean bactericidal concentrations | antimicrobial activity / MIC against planktonic S. aureus (in words) [2]: effective bactericidal activity | antimicrobial activity / MIC against planktonic S. aureus (in words) ([2]; listed as BCC): retains significant bactericidal activity | antimicrobial activity / MIC against planktonic S. aureus (in words) ([2]; listed as BP-ciprofloxacin): slightly greater concentrations of conjugate required to reach MIC than ciprofloxacin alone
